Test results reported in patent publication US7968554B2, “Pyrazolo[3,4-d]pyrimidine derivatives” (Hoffman-La Roche Inc., priority 2007, dated 2011).
pIC50: −log10 of the molar value.

Target: T1, c-Raf (Homo sapiens, UniProt P04049)
T1 construct: made in house; host or cells: baculovirus, High-5 (Hi5) insect cells, co-infected with FLAG-vSrc virus
Test: c-Raf HTRF assay with 6H-MEK as substrate (dose response)
Type: biochemical
Conditions: kinase enzyme inhibition, 6H-MEK substrate, read-out: cRaf IC50
Description: Kinase Enzyme Inhibition Assay (IC50)
c-Raf HTRF Assay With 6H-MEK as Substrate (Dose Response)
The assay utilizes 6H-MEK as the substrate. Upon c-Raf phosphorylation, phosphorylated 6H-MEK is detected with rabbit anti-phospho-MEK1/2, Eu-labeled anti-rabbit, and APC-labeled anti-6H antibodies.
Reagents and Instruments:
• Enzyme: cloned human c-Raf with EE-tag; phosphorylated (co-expressed with v-src-FLAG in baculovirus Hi5 cells), 0.2 mg/mL (2.74 μM assuming a molecular weight of 73 kD) stored at −15° C. • Substrate: WT full-length 6H-MEK, 4.94 mg/mL (154.4 μM assuming a MW of 32 kD) stored at −15° C. • Antibodies: Rabbit (α-P-(Ser 217/221)-MEK-1/2 Ab (from Cell Signaling, Cat. #9121B, Lot 14); Eu-(α-rabbit IgG (from Wallac, Cat. #AD0083, Lot 318663, 710 ug/mL, 4.4 μM); (α-6H-SureLight-APC (from Martek, Cat. #AD0059H, Lot E012AB01, 3.03 μM). • Reader: Envision from PerkinElmer, HTRF reading mode with 412 mirror • Assay Plate: Matrix all-black polypropylene plates (Cat. #4344) • Others: Weidman 384 polypropylene plates (REMP) for compound plate. Assay Procedure: • (1) Prepare Kinase Assay Buffer (KAB): 50 mM HEPES (HyClone) pH7, 10 mM MgCl2, 1 mM DTT, 0.1 mM […], and 0.3 mg/ml BSA. • (2) Prepare 6H-MEK (150 nM) in KAB. Add 12 μL/well to the assay plate. • (3) Prepare ATP (66 μM) in KAB. • (4) Dilute compounds to 2.4 mM and any positive controls to 480 μM in DMSO. Perform 10-point 3× dilution in DMSO. Withdraw 2.5 μL/well of DMSO solution and add to 27.5 μl/well ATP solution in (3). • (5) Mix, then add 6 μl/well of solution in (4) to the assay plate for a DMSO concentration of 2.1% during MEK phosphorylation. • (6) Prepare c-Raf (12 nM) in KAB. • (7) Add 6 μl/well of KAB in columns 1-2 and 6 μL/well of c-Raf in columns 3-24. • (8) Incubate at 37° C. for 30 min. • (9) Prepare rabbit (α-P-(Ser 217/221 )-MEK-1/2 Ab (1:240 from stock) in AB1: 50 mM HEPES pH7, 0.2 mg/mL BSA, and 43 mM EDTA. • (10) To stop reaction, add 6 μL/well of solution from (9) to the assay plate and incubate at 37° C. for 30 min. • (11) Prepare Eu-(α-rabbit IgG (9 nM) and (α-6H-SureLight-APC (120 nM) in AB2: 50 mM HEPES pH7 and 0.2 mg/mL BSA. • (12) Add 6 μl/well of solution from (11) to the assay plate. • (13) For determining the spectrum cross talk factor, prepare 2 samples following steps (1) to (10). For the blank sample, add 6 μl/well of AB2. For the cross talk factor sample, add 6 μL/well of Eu-anti rabbit IgG (9 nM). • (14) Incubate at room temperature for 1.5 hours. • (15) Read HTRF signals at 615 nm and 665 nm on the Envision. Normalize HTRF signals after spectrum cross-talk correction. Expression and Purification of c-Raf
N terminal EE-tagged c-Raf was expressed in High-5 cells. A five liter culture was co-transfected with virus for EE-c-Raf and FLAG-vSrc at a ratio of 1:2 and harvested after 48 hours. The cell pellet was lysed in TBS containing 5 mM EDTA, 50 mM KF, 20 mM Na pyrophosphate, 20 mM β-glycerolphosphate, 0.5 mM Na VO3, 1% NP-40 (w/v) and Complete Protease Tablets. The lysate was centrifuged at 20,000×g for 1 hour. The supernatant was incubated with 8 mL of anti-EE tag-Protein G Sepharose for 2 hours at 4° C. The resin was then washed with 30 volumes of the above buffer. The c-Raf protein was eluted by incubation with the above buffer containing 100 mg/mL of EE peptide for 1 hour at 4° C. The protein was concentrated using an Amicon Stir Cell with an YM10 membrane. The concentrated protein was dialyzed against TBS containing 1 mM DTT and 30% Glycerol. Protein concentration was determined by the BioRad DC method.
E. coli cells containing the plasmid for the expression of 6H-MEK1 (62-393) were grown in Rich Media and induced with 1 mM IPTG for 24 hours at 22° C. The cell pellet was resuspended in 50 mM potassium phosphate buffer, pH 8.0, 300 mM NaCl, 5 mM MgCl2, 10 mM CHAPS, 2 mM TCEP, and Complete Protease Inhibitor Tablets. Cells were disrupted by sonication. The lysate was cleared by centrifugation at 13,000×g for 45 minutes. […]

T1 sequence (P04049 whole entry): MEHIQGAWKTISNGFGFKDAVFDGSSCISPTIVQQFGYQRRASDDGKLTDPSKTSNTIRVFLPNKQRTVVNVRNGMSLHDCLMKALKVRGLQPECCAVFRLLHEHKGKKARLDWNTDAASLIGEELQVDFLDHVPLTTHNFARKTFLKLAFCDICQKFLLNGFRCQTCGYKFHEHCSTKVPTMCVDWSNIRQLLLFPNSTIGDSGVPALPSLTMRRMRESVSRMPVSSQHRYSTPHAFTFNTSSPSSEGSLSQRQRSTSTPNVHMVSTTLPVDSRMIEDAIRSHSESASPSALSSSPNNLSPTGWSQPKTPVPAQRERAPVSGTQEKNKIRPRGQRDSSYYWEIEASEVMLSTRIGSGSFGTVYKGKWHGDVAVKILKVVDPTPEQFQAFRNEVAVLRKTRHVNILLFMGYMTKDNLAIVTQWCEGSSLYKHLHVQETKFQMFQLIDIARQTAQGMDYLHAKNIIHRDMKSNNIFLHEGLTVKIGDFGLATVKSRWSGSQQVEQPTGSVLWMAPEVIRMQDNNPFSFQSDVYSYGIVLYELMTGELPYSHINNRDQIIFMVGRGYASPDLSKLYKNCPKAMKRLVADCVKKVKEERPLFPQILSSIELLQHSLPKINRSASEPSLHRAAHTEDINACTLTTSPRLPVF

pIC50	Structure (SMILES)
> 5.00	Cc1ccc(OCc2ccccc2)cc1OCc1nn(C)c2ncnc(N)c12 [Example 15, 3-(5-Benzyloxy-2-methyl-phenoxymethyl)-1-methyl-1H-pyrazolo[3,4-d]pyrimidin-4-ylamine]
> 5.00	Cn1nc(COc2cccc(OCc3ccccc3)c2)c2c(N)ncnc21 [Example 7, 3-(3-Benzyloxy-phenoxymethyl)-1-methyl-1H-pyrazolo[3,4-d]pyrimidin-4-ylamine]
> 5.00	Cc1noc(-c2ccc(C)c(OCc3nn(C)c4ncnc(N)c34)c2)n1 [Example 13, 4-Amino-1-1-methyl-3-[2-methyl-5-(3-methyl-[1,2,4]oxadiazol-5-yl)-phenoxymethyl]-1H-pyrazolo[3,4-d]pyrimidine]
> 5.00	Cc1nnc(-c2ccc(C)c(OCc3nn(C)c4ncnc(N)c34)c2)o1 [Example 21, 1-Methyl-3-[2-methyl-5-(5-methyl-[1,3,4]oxadiazol-2-yl)-phenoxymethyl]-1H-pyrazolo[3,4-d]pyrimidin-4-ylamine]
> 5.00	Cc1ccc(NC(=O)c2cccc(Cl)c2)cc1OCc1nn(C)c2ncnc(N)c12 [Example 11, N-[3-(4-Amino-1-methyl-1H-pyrazolo[3,4-d]pyrimidin-3-ylmethoxy)-4-methyl-phenyl]-3-chloro-benzamide]
> 5.00	Cc1ccc(OCc2ccc(Cl)cc2)cc1OCc1nn(C)c2ncnc(N)c12 [Example 19, 3-[5-(4-Chloro-benzyloxy)-2-methyl-phenoxymethyl]-1-methyl-1H-pyrazolo[3,4-d]pyrimidin-4-ylamine]
> 5.00	Cc1ccc(NC(=O)c2ccc(NCCO)c(Cl)c2)cc1OCc1nn(C)c2ncnc(N)c12 [Example 9, N-[3-(4-Amino-1-methyl-1H-pyrazolo[3,4-d]pyrimidin-3-ylmethoxy)-4-methyl-phenyl]-3-chloro-4-(2-hydroxy-ethylamino)-benzamide]
> 5.00	Cc1ccc(C(=O)Nc2ccc(Cl)cc2)cc1OCc1nn(C)c2ncnc(N)c12 [Example 17, 3-(4-Amino-1-methyl-1H-pyrazolo[3,4-d]pyrimidin-3-ylmethoxy)-N-(4-chloro-phenyl)-4-methyl-benzamide]
